Tests used:
Assay in all cases: Test C postemergence
Type in all cases: in vivo
[1] = system: yellow nutsedge (Cyperus esculentus); conditions: Cyperus, post-emergence, 336 h, Postemergence, scale 0 to 100, read-out: Plant response rating, Nutsedge, Yellow
[2] = system: barnyardgrass (Echinochloa crus-galli); conditions: Echinochloa crus-galli, post-emergence, Postemergence, scale 0 to 100, read-out: Plant response rating, Barnyardgrass
[3] = system: winter wheat (Triticum aestivum); conditions: Triticum aestivum, post-emergence, 336 h, Postemergence, scale 0 to 100, read-out: Plant response rating, Wheat
[4] = system: chickweed (common chickweed, Stellaria media); conditions: Stellaria media, post-emergence, Postemergence, scale 0 to 100, read-out: Plant response rating, Chickweed
[5] = system: giant foxtail (Setaria faberii); conditions: Setaria faberi, post-emergence, 336 h, Postemergence, scale 0 to 100, read-out: Plant response rating, Foxtail, Giant
[6] = system: johnsongrass (Sorghum halepense); conditions: Sorghum halepense, post-emergence, 336 h, Postemergence, scale 0 to 100, read-out: Plant response rating, Johnsongrass
[7] = system: morningglory (Ipomoea coccinea); conditions: Ipomoea, post-emergence, 336 h, Postemergence, scale 0 to 100, read-out: Plant response rating, Morningglory
kochia (Kochia scoparia) = conditions: Bassia scoparia, post-emergence, Postemergence, scale 0 to 100, read-out: Plant response rating, Kochia
[8] = system: oilseed rape (Brassica napus); conditions: Brassica napus, post-emergence, Postemergence, scale 0 to 100, read-out: Plant response rating, Oilseed Rape
[9] = system: velvetleaf (Abutilon theophrasti); conditions: Abutilon theophrasti, post-emergence, Postemergence, scale 0 to 100, read-out: Plant response rating, Velvetleaf
wild oat (Avena fatua) = conditions: Avena fatua, post-emergence, Postemergence, scale 0 to 100, read-out: Plant response rating, Oat, Wild
[10] = system: pigweed (Amaranthus retroflexus); conditions: Amaranthus retroflexus, post-emergence, 336 h, Postemergence, scale 0 to 100, read-out: Plant response rating, Pigweed
[11] = system: large (Lg) crabgrass (Digitaria sanguinalis); conditions: Digitaria sanguinalis, post-emergence, 336 h, Postemergence, scale 0 to 100, read-out: Plant response rating, Crabgrass, Large
[12] = system: Italian ryegrass (Lolium multiflorum); conditions: Lolium multiflorum, post-emergence, 336 h, Postemergence, scale 0 to 100, read-out: Plant response rating, Ryegrass, Italian
[13] = system: blackgrass (Alopecurus myosuroides); conditions: Alopecurus myosuroides, post-emergence, 336 h, Postemergence, scale 0 to 100, read-out: Plant response rating, Blackgrass

N#Cc1cccc(Oc2ncc(Cl)cn2)c1Oc1ncc(Cl)cn1 [Compound 3, 2,3-bis[(5-chloro-2-pyrimidinyl)oxy]benzonitrile] gave a pest or weed control at 31 g/ha ([1]; 31 g ai/ha) of 0%, a pest or weed control at 62 g/ha ([1]; 62 g ai/ha) of 0% and a pest or weed control at 125 g/ha ([1]; 125 g ai/ha) of 5%. It also gave a pest or weed control at 250 g/ha ([1]; 250 g ai/ha) of 35%, a pest or weed control at 31 g/ha ([2]; 31 g ai/ha) of 5% and a pest or weed control at 62 g/ha ([2]; 62 g ai/ha) of 10%. It also gave a pest or weed control at 125 g/ha ([2]; 125 g ai/ha) of 20%, a pest or weed control at 250 g/ha ([2]; 250 g ai/ha) of 60% and a plant injury at 31 g/ha ([3]; 31 g ai/ha) of 0%. For the same compound, the plant injury at 62 g/ha ([3]; 62 g ai/ha) was 0%, the plant injury at 125 g/ha ([3]; 125 g ai/ha) was 10% and the plant injury at 250 g/ha ([3]; 250 g ai/ha) was 15%. For the same compound, the pest or weed control at 31 g/ha ([4]; 31 g ai/ha) was 50%, the pest or weed control at 62 g/ha ([4]; 62 g ai/ha) was 85% and the pest or weed control at 125 g/ha ([4]; 125 g ai/ha) was 90%. For the same compound, the pest or weed control at 250 g/ha ([4]; 250 g ai/ha) was 95%, the pest or weed control at 31 g/ha ([5]; 31 g ai/ha) was 5% and the pest or weed control at 62 g/ha ([5]; 62 g ai/ha) was 15%. It also gave a pest or weed control at 125 g/ha ([5]; 125 g ai/ha) of 15%, a pest or weed control at 250 g/ha ([5]; 250 g ai/ha) of 60% and a pest or weed control at 31 g/ha ([6]; 31 g ai/ha) of 15%. It also gave a pest or weed control at 62 g/ha ([6]; 62 g ai/ha) of 15%, a pest or weed control at 125 g/ha ([6]; 125 g ai/ha) of 15% and a pest or weed control at 250 g/ha ([6]; 250 g ai/ha) of 50%. The pest or weed control at 31 g/ha ([7]; 31 g ai/ha) was 85%, the pest or weed control at 62 g/ha ([7]; 62 g ai/ha) was 90% and the pest or weed control at 125 g/ha ([7]; 125 g ai/ha) was 90%. The pest or weed control at 250 g/ha ([7]; 250 g ai/ha) was 98%, the pest or weed control at 31 g/ha (kochia (Kochia scoparia); 31 g ai/ha) was 90% and the pest or weed control at 62 g/ha (kochia (Kochia scoparia); 62 g ai/ha) was 90%. It also gave a pest or weed control at 125 g/ha (kochia (Kochia scoparia); 125 g ai/ha) of 95%, a pest or weed control at 250 g/ha (kochia (Kochia scoparia); 250 g ai/ha) of 95% and a plant injury at 31 g/ha ([8]; 31 g ai/ha) of 50%. It also gave a plant injury at 62 g/ha ([8]; 62 g ai/ha) of 60%, a plant injury at 125 g/ha ([8]; 125 g ai/ha) of 70% and a plant injury at 250 g/ha ([8]; 250 g ai/ha) of 85%. The pest or weed control at 31 g/ha ([9]; 31 g ai/ha) was 35%, the pest or weed control at 62 g/ha ([9]; 62 g ai/ha) was 70% and the pest or weed control at 125 g/ha ([9]; 125 g ai/ha) was 70%. The pest or weed control at 250 g/ha ([9]; 250 g ai/ha) was 80%, the pest or weed control at 31 g/ha (wild oat (Avena fatua); 31 g ai/ha) was 15% and the pest or weed control at 62 g/ha (wild oat (Avena fatua); 62 g ai/ha) was 30%. It also gave a pest or weed control at 125 g/ha (wild oat (Avena fatua); 125 g ai/ha) of 35%, a pest or weed control at 250 g/ha (wild oat (Avena fatua); 250 g ai/ha) of 35% and a pest or weed control at 31 g/ha ([10]; 31 g ai/ha) of 75%. It also gave a pest or weed control at 62 g/ha ([10]; 62 g ai/ha) of 80%, a pest or weed control at 125 g/ha ([10]; 125 g ai/ha) of 90% and a pest or weed control at 250 g/ha ([10]; 250 g ai/ha) of 100%. The pest or weed control at 31 g/ha ([11]; 31 g ai/ha) was 10%, the pest or weed control at 62 g/ha ([11]; 62 g ai/ha) was 10% and the pest or weed control at 125 g/ha ([11]; 125 g ai/ha) was 15%. For the same compound, the pest or weed control at 250 g/ha ([11]; 250 g ai/ha) was 85%, the pest or weed control at 31 g/ha ([12]; 31 g ai/ha) was 5% and the pest or weed control at 62 g/ha ([12]; 62 g ai/ha) was 5%. The pest or weed control at 125 g/ha ([12]; 125 g ai/ha) was 5%, the pest or weed control at 250 g/ha ([12]; 250 g ai/ha) was 35% and the pest or weed control at 31 g/ha ([13]; 31 g ai/ha) was 20%. For the same compound, the pest or weed control at 62 g/ha ([13]; 62 g ai/ha) was 20%, the pest or weed control at 125 g/ha ([13]; 125 g ai/ha) was 30% and the pest or weed control at 250 g/ha ([13]; 250 g ai/ha) was 30%.

— patent publication US20170190671A1, “BIS(ARYL)CATECHOL DERIVATIVES AS HERBICIDES” (E I DU PONT DE NEMOURS AND COMPANY, priority 2014, published 2017)
